From patent US9775902B2, “Compounds and methods for treatment of stroke” (FIBROGEN, INC, priority 2006, dated 2017) come the findings set out here.

One experiment relates to erythropoietin (EPO). Description: EPO expression in Kelly neuroblastoma cells. The experiment is classed as cell-based. Conditions: for EPO: conditioned media after overnight incubation. In outline: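 Kelly neuroblastoma cells treated overnight with compound, 1% DMSO as negative control. EPO and VEGF secreted into conditioned media measured by QUANTIKINE immunoassay.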

For experiment [1], the system named is C57BL/6 mice, permanent occlusion of the MCA. The experiment is described as follows: Permanent middle cerebral artery occlusion (pMCAO) in C57BL/6 mice: infarct volume and edema. The experiment is classed as in vivo. Conditions: for Percent Reduction in Edema / inhibition in vivo at up to 20 mg/kg: C57BL/6 mice pMCAO, 20-60 mg/kg i.v., compound given 0 hr; for inhibition in vivo at 60 mg/kg / inhibition in vivo at up to 20 mg/kg: Mus musculus, iv, read-out: Percent Reduction in Infarct Volume; for inhibition in vivo at 60 mg/kg: C57BL/6 pMCAO; for inhibition in vivo at up to 20 mg/kg: 24 h, 24 hours after MCA occlusion. Summed up: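 Male mice (25-35 g) under avertin anaesthesia had the distal MCA coagulated through a craniotomy; compound given as single i.v. bolus (20-60 mg/kg, 6 ml/kg in 5% dextrose with equimolar meglumine or NaOH) before or up to 8 h after occlusion.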

The subject of another experiment is VEGF. The experiment is described as follows: Plasma VEGF in mice after intravenous injection. To be noted: mouse plasma, 20 mg/kg i.v., four hours after injection; for fold induction at 20 mg/kg: iv, 4 h, read-out: VEGF Fold Increase. The experiment is classed as in vivo, Swiss Webster mice. In outline:
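Male Swiss Webster mice (29-34 g) received 20 mg/kg compound or vehicle by tail-vein injection in 5% dextrose with equimolar NaOH or meglumine. Plasma was collected 4 h later, and EPO and VEGF were measured by ELISA.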

Structures are written as SMILES. Read-outs that look alike come from different tables or passages of the source.

Consider `COc1ccc(Oc2ccc3c(O)c(C(=O)NCC(=O)O)ncc3c2)cc1` [Compound F, {[4-Hydroxy-7-(4-methoxy-phenoxy)-isoquinoline-3-carbonyl]-amino}-acetic acid], for which, in the experiment on erythropoietin (EPO), the “EPO Fold Increase” value was 10.5. Also, the EPO in the experiment on erythropoietin (EPO) amounted to 65 mIU/ml. The “Percent Reduction in Edema” value in experiment [1] is given as 47%. In addition, the inhibition in vivo at 60 mg/kg in experiment [1] (0 h, 60 mg/kg single i.v. bolus (Meglumine vehicle), 0 hr after MCA occlusion) worked out at 43%; in experiment [1] (0 h, 60 mg/kg single i.v. bolus (NaOH vehicle), 0 hr after MCA occlusion), 50%; in experiment [1] (1 h, 60 mg/kg single i.v. bolus (NaOH vehicle), 1 hr after MCA occlusion), 62%; in experiment [1] (3 h, 60 mg/kg single i.v. bolus (NaOH vehicle), 3 hr after MCA occlusion) it was 53%; in experiment [1] (4 h, 60 mg/kg single i.v. bolus (Meglumine vehicle), 4 hr after MCA occlusion), 36%; in experiment [1] (5 h, 60 mg/kg single i.v. bolus (NaOH vehicle), 5 hr after MCA occlusion), 55%. The inhibition in vivo at 60 mg/kg in experiment [1] (6 h, 60 mg/kg single i.v. bolus (Meglumine vehicle), 6 hr after MCA occlusion) is 15%; in experiment [1] (8 h, 60 mg/kg single i.v. bolus (Meglumine vehicle), 8 hr after MCA occlusion) it was 8%. In experiment [1], the inhibition in vivo at up to 20 mg/kg was found to be 68%. Besides, the fold induction at 20 mg/kg in the experiment on VEGF came out at 2.21. Moreover, the VEGF in the experiment with VEGF came out at 64 pg/mL.

For `N#Cc1nc(C(=O)NCC(=O)O)c(O)c2c(Oc3ccc(F)cc3)cccc12` [Compound AS, {[1-Cyano-5-(4-fluoro-phenoxy)-4-hydroxy-isoquinoline-3-carbonyl]-amino}-acetic acid], in the experiment on erythropoietin (EPO), the “EPO Fold Increase” value was determined as 11.72 and the EPO worked out at 221.5 mIU/ml. For the same molecule, in experiment [1], the “Percent Reduction in Edema” value was found to be 54% and the inhibition in vivo at up to 20 mg/kg was determined as 50%. In the experiment on VEGF, the fold induction at 20 mg/kg amounted to 0.57 and the VEGF is 20 pg/mL.

Turning to `Cc1cccc(C)c1Oc1ccc2c(C#N)nc(C(=O)NCC(=O)O)c(O)c2c1` [Compound AL, {[1-Cyano-6-(2,6-dimethyl-phenoxy)-4-hydroxy-isoquinoline-3-carbonyl]-amino}-acetic acid], in the experiment with erythropoietin (EPO), the “EPO Fold Increase” value was found to be 11.31 and the EPO turned out to be 213.8 mIU/ml. In experiment [1], the “Percent Reduction in Edema” value is reported as 73% and the inhibition in vivo at up to 20 mg/kg was determined as 43%. Further, in the experiment with VEGF, the fold induction at 20 mg/kg turned out to be 2.06 and the VEGF stood at 130 pg/mL.
